Assay: in vitro
Settings: human, hela cells, % viability

Row | SMILES | viability at 28.5 h, 10 µM [%] | viability at 28.5 h, 10 µM (bulk resorufin, single well) [%]
1 | Cc1ccc2oc([C@H]3CN(C(=O)C(C)(C)NC(=O)OC(C)(C)C)C[C@@H]3C(=O)O)cc2c1 [CBK001600] | 86.1 | –
2 | CCOC(=O)C1CN(C(=O)N(CCN)Cc2ccc(Cl)cc2)CC1c1ccccc1 (centres unmarked) [CBK001682C] | 97.8 | –
3 | CS(=O)(=O)N1CC2(CCN(C(=O)N(CCN)CCc3ccc(Cl)cc3)CC2)c2ccccc21 [CBK001687C] | 111 | –
4 | CCCCCNC(=O)C(Cc1ccc(O)c(C(=O)OCc2ccccc2)c1)NC(=O)OC(C)(C)C (centres unmarked) [CBK001708] | 96.2 | –
5 | CCCc1cc(C(=O)NCCCN)cc(CCC)c1OCc1ccccc1 [CBK001736C] | 114 | –
6 | c1cncc(CNCc2ccoc2)c1 [CBK001744C] | 88.1 | –
7 | OC/C=C/c1cnc2ccccc2c1 [CBK001749] | 119 | –
8 | CC(C)(C)OC(=O)N1CCC(Oc2cncc(Cl)n2)CC1 [CBK001762] | 98 | –
9 | OCCOc1ccccc1N1CCOCC1 [CBK001767C] | 116 | –
10 | Cc1ccc(OCCO)cn1 [CBK001786] | 91 | –
11 | OCCNc1nc(O)cc(C(F)(F)F)n1 [CBK001804] | 99.5 | –
12 | COC1C(O)=CC(=O)OC1(CCc1ccco1)CCc1ccco1 (centres unmarked) [CBK001858] | 86.7 | –
13 | CC(C)(C)OC(=O)N1CCN(c2nccnc2OCCO)CC1 [CBK001869] | 119 | –
14 | O=S(=O)(c1ccc2ccccc2c1)c1cnns1 [CBK001887] | 97.7 | –
15 | CC(C)(C)CCNCCN1CCOCC1 [CBK001895] | 92.2 | –
16 | COc1ccc(-n2cnnn2)cc1 [CBK001946] | 99 | –
17 | CNC(=O)c1oc(-c2ccc(OC)cc2)c(-c2ccc(OC)cc2)c1C(=O)NC [CBK001956] | 90.9 | –
18 | COC(=O)c1oc(-c2ccc(OC)cc2)c(-c2ccc(OC)cc2)c1C(N)=O [CBK001957] | 98.7 | –
19 | CC(C)(C)OC(=O)N1CCN(c2cc(N)ncn2)CC1 [CBK001963] | 101 | –
20 | OCCOc1ccccc1-c1cc[nH]n1 [CBK001973] | 104 | –
21 | COc1ccc(C)cc1OCCO [CBK001975] | 104 | –
22 | CC(=O)N1CCN(c2ccc(OCCO)cc2)CC1 [CBK001978] | 90.8 | –
23 | Cc1ccc(S(=O)(=O)NC(=O)N2CCCC2)cc1 [CBK001984] | 87.3 | –

Row | SMILES | viability at 28.5 h, 10 µM [%] | viability at 28.5 h, 10 µM (bulk resorufin, single well) [%]
24 | O=C(NC1CCCC1)c1ccccc1Cl [CBK001992] | 98.3 | –
25 | COc1ccc(CN2C(=O)CC(c3ccccc3)C2=O)cc1 (centres unmarked) [CBK002055] | 99.4 | –
26 | O=C(NC1CCCC1)c1ccc(Cl)cc1Cl [CBK002108] | 93.7 | –
27 | CCOC(=O)C1(c2ccccc2)CCN(C(=O)N(CCN)CCC(C)c2ccccc2)CC1 (centres unmarked) [CBK002129C] | – | 82.6
28 | CC(CCN(CCN)C(=O)N1CCC(Cn2cncn2)(C2CCCCC2)CC1)c1ccccc1 (centres unmarked) [CBK002130C] | 110 | –
29 | O=C(NC1CCCC1)c1ccc2c(c1)OCO2 [CBK002177] | 81 | –
30 | OC(CNCCc1cccnc1)COc1cccc2c1CCCC2 (centres unmarked) [CBK002237] | 106 | –
31 | OC(CNCc1cccs1)COc1cccc2c1CCCC2 (centres unmarked) [CBK002239] | 96.1 | –
32 | N#CC(CCCN1CCN(c2ccccc2)CC1)(c1ccccc1)c1ccccc1 [CBK002243C] | 96.8 | –
33 | COC(=O)c1cc(O)ccc1N [CBK002250] | 105 | –
34 | N=C(N)NCc1ccc(Cl)cc1 [CBK002260] | 95.7 | –
35 | O=C(CNC(=O)OCc1ccccc1)NCC(CCCN1CCN(c2ccccc2)CC1)(c1ccccc1)c1ccccc1 [CBK002293] | 125 | –
36 | CCOC(=O)c1c(-c2ccc(OC)cc2)noc1C(=O)c1ccccc1 [CBK002295] | 89.7 | –
37 | COCCNS(=O)(=O)c1ccc(C)cc1 [CBK002332] | 82.5 | –
38 | NC(Cc1ccccc1)CN(CC1(c2ccc(Cl)cc2)CC1)C(=O)Nc1ccc2c(c1)OCO2 (centres unmarked) [CBK002342C] | 76.1 | –
39 | O=C1CCCc2c1c1cccc(C(=O)O)c1n2Cc1ccccc1 [CBK002365] | – | 95.6
40 | COc1ccc2c(ccn2S(=O)(=O)c2ccsc2C(=O)O)c1 [CBK002378] | 102 | –
41 | Cc1[nH]cnc1CN1CCc2c(c3ccccc3n2C)C1=O [CBK002383C] | 63.5 | –
42 | COc1cc(CNc2nc(O)cc(C(F)(F)F)n2)cc(OC)c1OC [CBK002390] | 90.3 | –
43 | COc1ccc(F)c(CN(CC(C)(C)CN)C(=O)Nc2c(F)cccc2F)c1 [CBK002405C] | 109 | –
44 | Cc1c(F)cccc1CN(CC(C)(C)CN)C(=O)Nc1ccc(C(F)(F)F)cc1 [CBK002417C] | 89.5 | –
45 | Cc1cccc(CN(CC(C)(C)CN)C(=O)NC(C)c2cccc3ccccc23)n1 (centres unmarked) [CBK002423C] | 84.4 | –
46 | COc1ccccc1CN(CC(C)(C)CN)C(=O)NC1C[C@H]1c1ccccc1 (some centres unmarked) [CBK002424C] | 89.6 | –

Row | SMILES | viability at 28.5 h, 10 µM [%] | viability at 28.5 h, 10 µM (bulk resorufin, single well) [%]
47 | CC(NC(=O)N(Cc1ccc(-c2ccccc2)cc1)CC(C)(C)CN)c1cccc2ccccc12 (centres unmarked) [CBK002426C] | 50.9 | –
48 | CC(C)(CN)CN(Cc1ccncc1)C(=O)Nc1ccc(C(C)(C)C)cc1 [CBK002459C] | 82 | –
49 | COc1ccc(F)c(CN(CC(C)(C)CN)C(=O)Nc2ccc(C(C)(C)C)cc2)c1 [CBK002461C] | 94 | –
50 | CC(C)(CN)CN(Cc1c[nH]c(-c2ccccc2)n1)C(=O)Nc1ccc(C(C)(C)C)cc1 [CBK002462C] | 87.5 | –
51 | COc1ccc(F)c(CN(CC(C)(C)CN)C(=O)Nc2ccccc2C(C)(C)C)c1 [CBK002478C] | 98.1 | –
52 | Cc1c(F)cccc1CN(CC(C)(C)CN)C(=O)Nc1ccc2c(c1)OCO2 [CBK002486C] | 87.9 | –
53 | CN1CC[C@@]2(c3cc(F)cc(F)c3)CCC(=O)CC12 (some centres unmarked) [CBK002500] | 110 | –
54 | O=[N+]([O-])c1ccc(Oc2ccccc2F)cc1 [CBK002532] | 93.9 | –
55 | O=[N+]([O-])c1cc(F)ccc1Oc1cccc2c1CCCC2 [CBK002559] | 93.5 | –
56 | Cc1ccccc1COc1cccc2c1CCCC2 [CBK002562] | 98.2 | –
57 | COc1cc(C#N)ccc1Oc1nnnn1-c1ccccc1 [CBK002571] | 93.1 | –
58 | N#Cc1c(Oc2cccc(Cl)c2Cl)cccc1C(F)(F)F [CBK002592] | 91.1 | –
59 | O=[N+]([O-])c1cccnc1Oc1cccc(Cl)c1Cl [CBK002596] | 98 | –
60 | Cc1ccccc1COc1cccc(Cl)c1Cl [CBK002607] | 90.6 | –
61 | Cn1cnc([N+](=O)[O-])c1Sc1cccs1 [CBK002620] | 90.6 | –
62 | O=[N+]([O-])c1ccc(Sc2cccs2)c(C(F)(F)F)c1 [CBK002621] | 105 | –
63 | COc1ccc([N+](=O)[O-])c(Sc2cccs2)n1 [CBK002625] | 84.9 | –
64 | Clc1ccc(COc2cccc3c2CCCC3)cn1 [CBK002634] | 102 | –
65 | Clc1ccc(CSc2cccs2)cn1 [CBK002639] | 95.5 | –
66 | CCOC(=O)c1ccc(-c2ccc(OC)cc2)cc1 [CBK002658] | 95.2 | –
67 | COc1ccc([C@@]23CC/C(=N/NS(=O)(=O)c4ccc(C)cc4)C[C@@H]2N(Cc2ccccc2)CC3)cc1OC [CBK002717] | 95.5 | –
68 | O=[N+]([O-])c1ccc(Oc2ccccc2)nc1 [CBK002726] | 85.8 | –

— paper PMC12040169 (PLOS Biology, 2025)
